Source: article PMC11530130, “Peripherally restricted PICK1 inhibitor mPD5 ameliorates pain behaviors in murine inflammatory and neuropathic pain models” (JCI Insight, 2024)

Assays:
[1] = tested on: mice, spared nerve injury (SNI) model; assay type: in vivo, mouse; conditions: mouse, in vivo, sc
Description: solution (0.05 mg/kg) injected s.c. 30 min before surgery (10 μL/g). For surgery, mice were anaesthetised with ketamine (100 mg/kg, i.p.) and xylazine (10 mg/kg, i.p.) (volume 10 µL/g) with 100 μL of 1% xylocaine solution infiltrated at the site of the incision. The distal trifurcation of the sciatic nerve was identified, and the tibial and common peroneal branches were ligated with polypropylene nonabsorbable 6-0 sutures (Ethicon) and 1 mm was cut out, leaving the sural branch intact. The wound was closed with sutures, and the animals were allowed to recover and returned to their cages. Two subcutaneous injections of buprenorphine (0.05 mg/kg) were performed with an 8 to 12 hours delay decreasing pain due to the surgery […]
The remaining SNI pain experiments were performed in-house using the following procedure.
SNI surgery was performed on the left hindleg of C57BL/6J male and female mice (Janvier, France) under 2% isoflurane anaesthesia. Skin on the lateral surface was incised between hip and knee followed by lengthwise division of the biceps femoris muscle leading to exposure of the three branches of the sciatic nerve. Sural branch was left intact, while the peroneal and tibial branches were ligated with a single surgical knot and axotomized distally of the ligation.
Wounds were closed with surgical glue or medical clips and animals were monitored daily for signs of stress or discomfort, but in all cases recovered uneventfully. […]
(§1) The skin wound was closed with two medical clips (Michel Suture Clips, 7.5x1.75 mm, Angthos, 12040-01). Post-surgical analgesia included s.c. injection of 5 mg/kg carprofen (Carprosan vet, 50 mg/mL mixed 1:25 in sterile ddH2O, Dechra, Le Vet Beheer B.V., Netherlands, Batch: 050520) right after surgery and the […]
(§2) following day. […]
(§3) The test battery of the CIBP model was carried out 45 or 90 min after morphine and mPD5 administration respectively to accommodate the peak efficacy […]
(§4) Mechanically evoked pain (von Frey test).
(§5) Unless otherwise specified, von Frey occurred as described in the following. Animals were habituated to the experimental room for a minimum of 60 min before initiation of the experiment. Mechanical paw withdrawal threshold (PWT) was determined by von Frey measurements of both hind paws. Von Frey filaments ranging from 0.04 to 2 g (g = gram- […]
(§6) Filaments in ascending order were applied to the frontocentral plantar surface of the hind paws.
(§7) Mice were placed in PVC plastic boxes (11.5 cm x 14 cm) on a wire mesh and allowed minimum 20 min habituation prior of experiment initiation. Each von Frey hair was applied five times with adequate resting periods between each application and number of withdrawals recorded. The withdrawal threshold was determined as the von Frey filament eliciting at least three positive trials out of the five applications in two consecutive filaments. A positive trial was defined as sudden paw withdrawal, flinching and/or paw licking induced by the filament.
(§8) For the CIBP model, two habituation sessions were performed on separated days with mice placed in the von Frey equipment for 1-1.5 hours in the presence of the experimenter on day one and random von Frey pocking with the 0.6 g filament on day two. Von Frey monofilaments (North Coast Touch Test, North Coast Medical, Inc.) with target forces of 0.04g, 0.07g, 0.16g, […]
(§9) down method” (PWT=10Xf+kδ) starting with the 0.6 g filament. Positive response was defined as; withdrawal, shaking or grooming of paw following a 2-3 second stimulation. In case, of unclear response, stimulus was repeated after 10-15 seconds.
(§10) For the STZ model, the mechanical threshold response of the injected mice was measured with […]
(§11) injection of test compounds on day 14, mechanical threshold was measured at 1 hour, 2 hours, 4 hours and 6 hours and again on day 15. […]
(§12) Thermally evoked pain (Hargreaves test).
A baseline Hargreaves test was performed on day 0 before inflammatory pain was induced as described in section 2.13. In the Hargreaves test, the mouse was placed in a container on a glass […]

[2] = tested on: mice, streptozocin (STZ) model of type 1 diabetes; test: STZ model of diabetic neuropathy, von Frey; assay type: in vivo, mouse; conditions: male mice, positive control, dose not given
Description: Induction of Diabetic neuropathy (STZ model).
Diabetes was induced by a single i.p. injection of […] streptozocin (STZ) solution (100 μL/10 g, Sigma-Aldrich S0130, batch #WXBB7152V) in male seven-week-old C57BL/6J (Charles River) mice. Glycemia was tested before, and seven days after injection. All injected mice had blood glucose concentration >350 mg/dL from day seven and were used for analgesic testing of the compounds from day 14. One mouse had to be euthanized at seven days post injection. This experiment was performed by Phenotype Expertise, Marseilles, France - Pain and CNS behaviour CRO under supervision of Stéphane Gaillard, PhD (CEO). […]
as §1, §2, §3, §4, §5, §6, §7, §8, §9, §10, §11, §12
A baseline Hargreaves test was performed on day 0 before inflammatory pain was induced as described in section 2.13. In the Hargreaves test, the mouse was placed in a container on a glass table and left to habituate for at least 15 min. Using the Hargreaves apparatus, a heat beam from beneath was directed towards the hind paws of the mouse, and the paw withdrawal time

Row | Compound | itching in the mice [1] | duration of significant pain relief [2]
1 | CCCCCCCCCCCCCCCCCC(=O)N(CCOCCOCCC(=O)N[C@@H](Cc1c[nH]cn1)C(=O)N[C@@H](Cc1c[nH]c2ccccc12)C(=O)N[C@@H](CC(C)C)C(=O)N[C@@H](CCCCN)C(=O)N[C@H](C(=O)O)C(C)C)CCOCCOCCC(=O)N[C@@H](Cc1c[nH]cn1)C(=O)N[C@@H](Cc1c[nH]c2ccccc12)C(=O)N[C@@H](CC(C)C)C(=O)N[C@@H](CCCCN)C(=O)N[C@H](C(=O)O)C(C)C [sPD5, stearoyl-NPEG4-(HWLKV)2] | profound itching | –
2 | CCCCCCCCCCCCCCCCCCCC(=O)N(CCOCCOCCC(=O)N[C@@H](Cc1c[nH]cn1)C(=O)N[C@@H](Cc1c[nH]c2ccccc12)C(=O)N[C@@H](CC(C)C)C(=O)N[C@@H](CCCCN)C(=O)N[C@H](C(=O)O)C(C)C)CCOCCOCCC(=O)N[C@@H](Cc1c[nH]cn1)C(=O)N[C@@H](Cc1c[nH]c2ccccc12)C(=O)N[C@@H](CC(C)C)C(=O)N[C@@H](CCCCN)C(=O)N[C@H](C(=O)O)C(C)C [aPD5, arachidoyl-NPEG4-(HWLKV)2] | profound itching | –
3 | CC(C)C[C@H](CN)CC(=O)O [pregabalin, reference compound] | – | up to 4 hours
